Reference: the RepoRT retention time repository

Experiment: RP, Waters CORTECS UPLC C18, 100 × 2.1 mm, 1.6 µm, 40 °C, 0.4 mL/min, estimated dead time 0.55 min; A: water + 0.1% formic acid, pH 3; B: acetonitrile + 0.1% formic acid, pH 3; gradient (min/%B) 0/5 1.12/5 6.41/99.5 10.01/99.5
Details: stereoisomer not certain

LC retention time [min] | Compound
5.1 | CCCCCCCCCCCCCC(O)CC(=O)OC(CC(=O)[O-])C[N+](C)(C)C [[(3R)-3-Hydroxyhexadecanoyl]-L-carnitine]
2.7 | O=C(O)CCCCC1SCC2NC(=O)NC21 (centres undefined) [BIOTIN]
4.08 | CC(CCC(=O)NCC(=O)O)C1CCC2C3C(O)CC4CC(O)CCC4(C)C3CC(O)C12C (centres undefined) [Glycocholic acid hydrate]
7.3 | CC1CCC2(OC1)OC1CC3C4CC=C5CC(O)CCC5(C)C4CCC3(C)C1C2C (centres undefined) [Diosgenin]
0.792 | Cc1c[nH]c(=O)[nH]c1=O [THYMINE]
4.62 | C=CCCCCCCCC(=O)O [9-Decenoic acid]
1.79 | NC(=O)[C@@H](N)Cc1c[nH]c2ccccc12 [L-TRYPTOPHANAMIDE]
2.29 | O=C(O)C(=O)Cc1ccccc1 [Phenylpyruvic acid]
1.3 | C[N+](C)(C)CC(CC(=O)[O-])OC(=O)CCCCC(=O)[O-].[H+] [Adipoyl-L-carnitine]
0.782 | O=C(O)c1ccnc2ccccc12 [4-QUINOLINECARBOXYLATE]
2.15 | Cn1c(=O)c2[nH]cnc2n(C)c1=O [THEOPHYLLINE]
1.25 | NC(Cc1ccccc1)C(=O)O (centres undefined) [PHENYLALANINE]
0.722 | Nc1cc(O)cc(C(=O)O)c1 [3-AMINO-5-HYDROXYBENZOATE]
3.13 | CCS(=O)(=O)c1nnc(N(C)C(=O)NC)s1 [Sulfadiazole]
6.05 | C[C@H](CCC(=O)O)[C@H]1CC[C@H]2[C@@H]3CC[C@@H]4CC(=O)CC[C@]4(C)[C@H]3CC[C@]12C [3-Oxo-5β-cholanoic Acid]
3.52 | O=C(O)CCCCCCCC(O)C(O)CCCCCCO (centres undefined) [Aleuritic acid]
4.7 | CCCCCCCCCCCC(=O)OC(CC(=O)[O-])C[N+](C)(C)C [Lauroyl-L-carnitine]

LC retention time [min] | Compound
2.25 | CC(CC(=O)[O-])CC(=O)OC(CC(=O)O)C[N+](C)(C)C (centres undefined) [3-Methylglutarylcarnitine]
3.26 | Cc1cc2nc3[nH]c(=O)[nH]c(=O)c3nc2cc1C [LUMICHROME]
3.14 | CC(=O)NC(Cc1c[nH]c2ccccc12)C(=O)O (centres undefined) [N-ACETYLTRYPTOPHAN]
3.94 | O=C(O)CCCc1c[nH]c2ccccc12 [Indole-3-butyric acid]
3.35 | N[C@@H](Cc1cc(I)c(Oc2ccc(O)cc2)c(I)c1)C(=O)O [3,5-DIIODO-L-THYRONINE]
4.88 | CC(CC(=O)O)C1CCC2C3CCC4CC(O)CCC4(C)C3CC(O)C12C (centres undefined) [Nor-Desoxycholic Acid]
2.43 | CC=C(C)C(=O)OC(CC(=O)[O-])C[N+](C)(C)C [Tigloyl-L-carnitine]
0.727 | O=c1[nH]c(=O)c2[nH]c(=O)[nH]c2[nH]1 [URATE]
5.22 | CC(CCC(=O)O)C1CCC2C3CCC4CC(O)CCC4(C)C3CC(O)C12C (centres undefined) [Deoxycholic acid]
4.18 | CC(CCC(=O)NCCS(=O)(=O)O)C1CCC2C3C(O)CC4CC(O)CCC4(C)C3CCC12C (centres undefined) [Tauroursodeoxycholic acid]
5.89 | CCCCCCCCCCCCCCCCCC(=O)OC(CC(=O)[O-])C[N+](C)(C)C [Stearoyl-L-carnitine]
3.31 | COc1ccc2[nH]cc(CCNC(C)=O)c2c1 [MELATONIN]
4.59 | CCCCCCCCCCC[n+]1cccc(S(=O)(=O)[O-])c1 [C11-APS]
2.35 | O=C(O)c1cc(=O)c2ccccc2[nH]1 [KYNURENATE]
1.97 | CCCOC(=O)NCCCN(C)C [Propamocarb]
5.23 | CCNc1nc(Cl)nc(N(CC)CC)n1 [Trietazin]
4.21 | CCCCCCCCCC(=O)OC(CC(=O)[O-])C[N+](C)(C)C [Decanoyl-L-carnitine]

The remaining lines, values behind:

Compound | LC retention time [min]
O=c1c2cc(F)ccc2nc(-n2cncn2)n1-c1ccc(Cl)cc1Cl [Fluquinconazole] | 5.01
CNC(=O)Oc1cccc2ccccc12 [Carbaryl] | 3.14
CC(C)(C)C(O)C(Oc1ccc(-c2ccccc2)cc1)n1cncn1 (centres undefined) [Bitertanol] | 5.14
CCCSP(=O)(OCC)Oc1ccc(Br)cc1Cl (centres undefined) [Profenofos] | 5.85
COC(=O)c1ccccc1S(=O)(=O)NC(=O)Nc1nc(C)nc(OC)n1 [Metsulfuron-methyl] | 3.99
CCCC1COC(Cn2cncn2)(c2ccc(Cl)cc2Cl)O1 (centres undefined) [Propioconazole] | 5.3
CCOC1Oc2ccc(OS(C)(=O)=O)cc2C1(C)C (centres undefined) [Ethofumesate] | 5.04
CC1(C)COC(=O)C1O (centres undefined) [PANTOLACTONE] | 3.31
CNC(=O)c1cc(Cl)cc(C)c1NC(=O)c1cc(Br)nn1-c1ncccc1Cl [Chlorantraniliprole] | 4.63
CCOP(=S)(OCC)Oc1cnc2ccccc2n1 [Quinalfos] | 5.44
CCc1nn(C)c(C(=O)NCc2ccc(C(C)(C)C)cc2)c1Cl [Tebufanpyrad] | 5.93
Cc1ccc(-c2c(Cl)nc(C#N)n2S(=O)(=O)N(C)C)cc1 [Cyazofamid] | 5.39
CC(C)(C)C(O)C(=Cc1ccc(Cl)cc1Cl)n1cncn1 (centres undefined) [Diniconazole] | 5.27
CCCCCCCCSC(=O)Oc1cc(Cl)nnc1-c1ccccc1 [Pyridat] | 6.78
CC(C)N(C(=O)COc1nnc(C(F)(F)F)s1)c1ccc(F)cc1 [Flufenacet] | 5.22
CC(C)(C)C(O)C(Oc1ccc(Cl)cc1)n1cncn1 (centres undefined) [Triadimenol] | 4.74
CCS(=O)(=O)c1cccnc1S(=O)(=O)NC(=O)Nc1nc(OC)cc(OC)n1 [Rimsulfuron] | 4.11
CCCCN(CCCC)SN(C)C(=O)Oc1cccc2c1OC(C)(C)C2 [Carbosulfan] | 6.87
O=C/C=C/c1ccccc1 [TRANS-CINNAMALDEHYDE] | 5
O=C(Nc1ccccc1-c1ccc(Cl)cc1)c1cccnc1Cl [Boscalid] | 4.99
CCCOCC(=Nc1ccc(Cl)cc1C(F)(F)F)n1ccnc1 [Triflumizol] | 5.16
O=C(Nc1ccccc1)Nc1cnns1 [Thidiazuron] | 3.74
CCCCOC(=O)N(C)SN(C)C(=O)Oc1cccc2c1OC(C)(C)C2 [Furathiocarb] | 6.05
CNC(=O)ON=C(C)SC [Methomyl] | 4.02
CCOP(=S)(OCC)Oc1nc(Cl)c(Cl)cc1Cl [Dursban] | 6.17
CCN(Cc1ccc(Cl)nc1)C(=C[N+](=O)[O-])NC [Nitenpyram] | 2.6
Fc1ccc(C2(Cn3cncn3)OC2c2ccccc2Cl)cc1 (centres undefined) [Epoxiconazol] | 4.94
CCc1ccc(C(=O)NN(C(=O)c2cc(C)cc(C)c2)C(C)(C)C)cc1 [Tebufenozide] | 5.33
CNC(=O)ON=C(CSC)C(C)(C)C [Thiofanox] | 4.76
COC(=O)c1sccc1S(=O)(=O)NC(=O)Nc1nc(C)nc(OC)n1 [Thifensulfurson methyl] | 3.9
